{"source": "patent US20010056099A1", "about": "“Method of reducing morbidity and the risk of mortality” (priority 2000, published 2001)", "key": {"OVX rats [1]": {"test_system": "OVX rats", "assay": "Ovariectomized rat model: femoral BMD by dual-energy X-ray absorptiometry", "assay_type": "in vivo", "conditions": "4 weeks", "from_the_text": "(§1) In women, estrogen deficiency during the menopause results in increased bone turnover leading to bone loss. Ovariectomy in rats produces estrogen deficiency and increased bone turnover leading to trabecular bone loss similar to that observed in post-menopausal women (Kalu, D. N., Bone and Mineral 1991;15:175; Frost, H. M., Jee W. S. S., Bone and Mineral 1992;18:227; Wronski, T. J., Yen, C-F, Cells Materials 1991 ;(suppl. 1):69). The OVX rat is thus an appropriate model to evaluate compounds for the prevention and treatment of post-menopausal osteoporosis. The ability of PPTN to inhibit estrogen deficiency bone loss was assessed in 5-month-old OVX rats, since ovariectomy causes significant bone loss in the lumbar vertebrae, proximal tibia, and distal femoral metaphyses (Ke, H. Z., et al., Endocrin 1995;136:2435; Chen, H. K., et al., J Bone Miner Res 1995;10:1256).\n(§2) Five-month-old OVX female rats were treated with PPTN at oral doses of 0.733, 7.33, 73.3, and 733 μg/kg/day, or 17α-ethynyl estradiol (EE) at 30 μg/kg/day (10 rats per subgroup) daily for 4 weeks. The oral treatment began 1 day after surgery. Groups of vehicle-treated sham rats (n=10) and vehicle-treated OVX rats (n=10) served as controls. Calcein at 10 mg/kg was injected s.c. to all rats 12 and 2 days before necropsy as a fluorochrome bone marker to measure bone dynamic histomorphometric parameters. The effects of PPTN on the following end points were determined: (a) serum osteocalcin, a biochemical marker of bone turnover, (b) bone mineral density of lumbar vertebrae and distal femoral metaphyses, (c) bone histomorphometry of fifth lumbar vertebral body and proximal tibial metaphyses.\nUsing dual-energy X-ray absorptiometry, the right femur of each rat was scanned ex vivo. Bone mineral density (BMD) of the distal femoral metaphyses (second 0.5 cm from the distal end of femur) and the proximal femur (the first 0.5 cm from the proximal end of femur, which contains the femoral head, neck, and greater trochanter) was determined."}, "OVX rats [2]": {"test_system": "OVX rats", "assay": "Ovariectomized rat model: histomorphometry of proximal tibial metaphyses", "assay_type": "in vivo", "conditions": "4 weeks", "from_the_text": "as §1, §2\nIn order to determine the effect of PPTN on long bone metaphyses, histomorphometric analyses were performed on the proximal tibiae."}, "MDA-MB-231 cells": {"test_system": "MDA-MB-231 cells", "assay": "Inhibition of in vitro human breast tumor cell growth (ER-negative line)", "assay_type": "cell-based", "conditions": "MDA-MB-231 (ER-negative), 6 days incubation, direct cell counts", "description": "The in vitro antiproliferative effects of (-)-cis-6-phenyl-5-[4-(2-pyrrolidin-1-yl-ethoxy)-phenyl]-5,6,7,8-tetrahydro-naphthalene-2-ol (PPTN) were tested using two types of human breast cancer cell lines: first, MCF-7 cells, which contain ER as well as progesterone receptors (PgR), and second, MDA-MB-231 cells, which lack ER and PgR, and enable the determination of an effect that is independent of the ER mechanism. The effect of PPTN on the growth of these different cell lines was determined by incubation of the cells with various compound concentrations for 6 days.\nThe antiproliferative effects were then determined by direct cell counts. PPTN inhibited the growth of the ER-positive cell line MCF-7."}, "OVX rats [3]": {"test_system": "OVX rats", "assay": "Ovariectomized rat model: lumbar vertebral BMD by dual-energy X-ray absorptiometry", "assay_type": "in vivo", "conditions": "4 weeks", "from_the_text": "as §1, §2\nThe first to the sixth lumbar vertebrae from each rat were removed during necropsy. These were then scanned ex vivo using dual-energy X-ray absorptiometry. The scan images were analyzed, and bone area, bone mineral content (BMC), and bone mineral density (BMD) of whole lumbar vertebrae (WLV), and LV1 through LV6 were determined. […] The changes in BMC were similar to those observed in BMD. […]"}, "OVX rats [4]": {"test_system": "OVX rats", "assay": "Ovariectomized rat model: bone histomorphometry of fifth lumbar vertebral body", "assay_type": "in vivo", "conditions": "4 weeks; for OVX-induced increase in bone formation rate (BFR) / percent eroded surface (index of osteoclastic bone resorption) compared with sham controls: lumbar vertebra", "from_the_text": "as §1, §2\nIn order to understand the cellular mechanism of bone-protective effects of PPTN at the tissue level, bone histomorphometric methods were used to determine the effects of PPTN on cancellous bone of the fifth lumbar vertebral body in OVX rats. Ovariectomy caused significant decreases in trabecular bone volume (trabecular bone area divided by marrow space area, expressed as percent) and trabecular number, and a significant increase in trabecular separation of the fifth lumbar vertebral body."}, "OVX rats [5]": {"test_system": "OVX rats", "assay": "Ovariectomized rat model: serum osteocalcin by radioimmunoassay", "assay_type": "in vivo", "conditions": "daily for 4 weeks", "from_the_text": "as §1\nFive-month-old OVX female rats were treated with PPTN at oral doses of 0.733, 7.33, 73.3, and 733 μg/kg/day, or 17α-ethynyl estradiol (EE) at 30 μg/kg/day (10 rats per subgroup) daily for 4 weeks. […] The effects of PPTN on the following end points were determined: (a) serum osteocalcin, a biochemical marker of bone turnover, (b) bone mineral density of lumbar vertebrae and distal femoral metaphyses, (c) bone histomorphometry of fifth lumbar vertebral body and proximal tibial metaphyses. […]"}, "[6]": {"conditions": "PPTN at 73.3 or 733 μg/kg/day oral"}, "[7]": {"conditions": "PPTN at doses ≧7.33 μg/kg/day oral"}}, "data": [{"smiles": "Oc1ccc2c(c1)CC[C@H](c1ccccc1)[C@@H]2c1ccc(OCCN2CCCC2)cc1", "note": "[PPTN, (-)-cis-6-phenyl-5-[4-(2-pyrrolidin-1-yl-ethoxy)-phenyl]-5,6,7,8-tetrahydro-naphthalene-2-ol]", "values": [{"measurement": "BMD of distal femoral metaphyses and proximal femur", "setting": "OVX rats [1]; PPTN at 0.733 or 7.33 μg/kg/day oral", "result": "did not differ from OVX controls"}, {"measurement": "OVX-induced decreases in BMD of distal femoral metaphyses and proximal femur", "setting": "OVX rats [1]; [6]", "result": "completely prevented the decreases"}, {"measurement": "proximal tibial trabecular bone volume", "setting": "OVX rats [2]; PPTN at 0.733 μg/kg/day oral", "result": "no significant effect"}, {"measurement": "percent osteoclast surface compared with OVX controls", "setting": "OVX rats [2]; PPTN at 0.733 μg/kg/day, proximal tibia", "result": "decreased significantly"}, {"measurement": "osteoclast number per millimeter of bone surface and percent osteoclast surface compared with both sham and OVX controls", "setting": "OVX rats [2]; PPTN at 7.33, 73.3, or 733 μg/kg/day oral, proximal tibia", "result": "significantly decreased"}, {"measurement": "bone turnover rate in proximal tibial trabecular bone", "setting": "OVX rats [2]; PPTN at doses of 7.33 to 733 μg/kg/day oral", "result": "did not differ from sham controls"}, {"measurement": "proximal tibial trabecular bone volume compared with OVX controls", "setting": "OVX rats [2]; [7]", "result": "significantly greater"}, {"measurement": "inhibition of cell proliferation", "setting": "MDA-MB-231 cells", "result": "did not inhibit cell proliferation"}, {"measurement": "lumbar vertebral BMD compared with both sham and OVX controls", "setting": "OVX rats [3]; PPTN 73.3 μg/kg/day oral", "result": "increased significantly"}, {"measurement": "OVX-induced decrease in lumbar vertebral BMD", "setting": "OVX rats [3]; PPTN at all dose levels (0.733, 7.33, 73.3, 733 μg/kg/day oral)", "result": "completely prevented"}, {"measurement": "ED50 in preserving lumbar vertebral cancellous bone mass and structure", "setting": "OVX rats [4]; OVX rats, oral", "result": "less than 0.733 μg/kg/day"}, {"measurement": "trabecular number of fifth lumbar vertebral body compared with sham controls", "setting": "OVX rats [4]; [6]", "result": "significantly increased"}, {"measurement": "bone turnover rate, lumbar vertebra", "setting": "OVX rats [4]; PPTN at all dose levels, oral", "result": "did not differ from sham controls"}, {"measurement": "OVX-induced increase in bone formation rate (BFR)", "setting": "OVX rats [4]; PPTN at all dose levels, oral", "result": "inhibited this increase"}, {"measurement": "percent eroded surface (index of osteoclastic bone resorption) compared with sham controls", "setting": "OVX rats [4]; PPTN at all dose levels, oral", "result": "significantly decreased"}, {"measurement": "OVX-induced changes in trabecular bone volume, trabecular number and trabecular separation of fifth lumbar vertebral body", "setting": "OVX rats [4]; all doses of PPTN (0.733-733 μg/kg/day oral)", "result": "completely prevented"}, {"measurement": "OVX-induced increase in serum osteocalcin concentration", "setting": "OVX rats [5]; [7]", "result": "completely prevented"}]}, {"smiles": "C#C[C@]1(O)CC[C@H]2[C@@H]3CCc4cc(O)ccc4[C@H]3CC[C@@]21C", "note": "[EE, 17α-ethynyl estradiol, reference compound]", "values": [{"measurement": "OVX-induced decrease in BMD of distal femoral metaphyses", "setting": "OVX rats [1]; EE 30 μg/kg/day oral", "result": "prevented the decrease"}, {"measurement": "proximal femoral BMD", "setting": "OVX rats [1]; EE 30 μg/kg/day oral", "result": "had no effect"}, {"measurement": "bone turnover rate in proximal tibial trabecular bone", "setting": "OVX rats [2]; EE 30 μg/kg/day oral", "result": "did not differ from sham controls"}, {"measurement": "osteoclast number per millimeter of bone surface and percent osteoclast surface compared with both sham and OVX controls", "setting": "OVX rats [2]; EE 30 μg/kg/day oral, proximal tibia", "result": "significantly decreased"}, {"measurement": "OVX-induced decrease in lumbar vertebral BMD", "setting": "OVX rats [3]; EE 30 μg/kg/day oral", "result": "completely prevented"}, {"measurement": "OVX-induced changes in trabecular bone volume, trabecular number and trabecular separation of fifth lumbar vertebral body", "setting": "OVX rats [4]; EE 30 μg/kg/day oral", "result": "completely prevented"}, {"measurement": "bone turnover rate, lumbar vertebra", "setting": "OVX rats [4]; EE 30 μg/kg/day oral", "result": "did not differ from sham controls"}, {"measurement": "trabecular number of fifth lumbar vertebral body compared with sham controls", "setting": "OVX rats [4]; EE 30 μg/kg/day oral", "result": "significantly increased"}, {"measurement": "OVX-induced increase in bone formation rate (BFR)", "setting": "OVX rats [4]; EE 30 μg/kg/day oral", "result": "inhibited this increase"}, {"measurement": "percent eroded surface (index of osteoclastic bone resorption) compared with sham controls", "setting": "OVX rats [4]; EE 30 μg/kg/day oral", "result": "significantly decreased"}, {"measurement": "OVX-induced increase in serum osteocalcin concentration", "setting": "OVX rats [5]; EE 30 μg/kg/day oral", "result": "completely prevented"}]}]}
